Experimental data reported in PubChem BioAssay (NCI).
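How tested: cells in 96-well plates exposed to compound for 48 hours at five concentrations. Here, GI50 denotes the concentration required for 50% inhibition of growth. The concentration for full growth arrest is given as TGI.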

Columns and labels:
Test in all cases: NCI anticancer screen, dose series, 48 h
HCC-2998 colon = system: HCC-2998 colon
CAKI-1 renal = system: CAKI-1 renal
HOP-92 NSCLC = system: HOP-92 NSCLC
MDA-MB-435 = system: MDA-MB-435
HCT-15 colon = system: HCT-15 colon
CCRF-CEM leukemia = system: CCRF-CEM leukemia
OVCAR-8 ovarian = system: OVCAR-8 ovarian
IGROV1 ovarian = system: IGROV1 ovarian
SK-MEL-28 melanoma = system: SK-MEL-28 melanoma
SK-MEL-5 melanoma = system: SK-MEL-5 melanoma
HT29 colon = system: HT29 colon
SF-268 CNS = system: SF-268 CNS
HOP-62 NSCLC = system: HOP-62 NSCLC
SK-OV-3 ovarian = system: SK-OV-3 ovarian
SF-295 CNS = system: SF-295 CNS
786-0 renal = system: 786-0 renal
U251 CNS = system: U251 CNS
TK-10 renal = system: TK-10 renal
M14 melanoma = system: M14 melanoma
HCT-116 colon = system: HCT-116 colon
HS 578T breast = system: HS 578T breast
SNB-75 CNS = system: SNB-75 CNS
BT-549 breast = system: BT-549 breast
LOX IMVI melanoma = system: LOX IMVI melanoma
KM12 colon = system: KM12 colon
NCI-H23 lung = system: NCI-H23 lung
NCI-H522 lung = system: NCI-H522 lung
MALME-3M melanoma = system: MALME-3M melanoma
UO-31 renal = system: UO-31 renal
SN12C renal = system: SN12C renal
HL-60(TB) leukemia = system: HL-60(TB) leukemia
PC-3 prostate = system: PC-3 prostate
NCI/ADR-RES ovarian = system: NCI/ADR-RES ovarian
DU-145 prostate = system: DU-145 prostate
SNB-19 CNS = system: SNB-19 CNS
OVCAR-4 ovarian = system: OVCAR-4 ovarian
K-562 leukemia = system: K-562 leukemia
OVCAR-3 ovarian = system: OVCAR-3 ovarian
NCI-H460 lung = system: NCI-H460 lung
UACC-62 melanoma = system: UACC-62 melanoma
RPMI-8226 leukemia = system: RPMI-8226 leukemia
UACC-257 melanoma = system: UACC-257 melanoma
A498 renal = system: A498 renal
A549 NSCLC = system: A549 NSCLC
SW-620 colon = system: SW-620 colon
MDA-MB-231 breast = system: MDA-MB-231 breast
COLO 205 colon = system: COLO 205 colon
MOLT-4 leukemia = system: MOLT-4 leukemia
MCF7 breast = system: MCF7 breast
T-47D breast = system: T-47D breast
SR leukemia = system: SR leukemia
ACHN renal = system: ACHN renal
OVCAR-5 ovarian = system: OVCAR-5 ovarian
RXF 393 renal = system: RXF 393 renal
SK-MEL-2 melanoma = system: SK-MEL-2 melanoma

Cc1ccc2c(c1)O/C(=C\c1ccc([N+](=O)[O-])o1)C2=O
GI50 (HCC-2998 colon): 2050 nM | TGI (HCC-2998 colon): 4490 nM | GI50 (CAKI-1 renal): 1410 nM | TGI (CAKI-1 renal): 2940 nM | GI50 (HOP-92 NSCLC): 1140 nM | TGI (HOP-92 NSCLC): 2760 nM | GI50 (MDA-MB-435): 1870 nM | TGI (MDA-MB-435): 4420 nM | GI50 (HCT-15 colon): 393 nM | TGI (HCT-15 colon): 1540 nM | GI50 (CCRF-CEM leukemia): 424 nM | TGI (CCRF-CEM leukemia): 2610 nM | GI50 (OVCAR-8 ovarian): 1400 nM | TGI (OVCAR-8 ovarian): 6570 nM | GI50 (IGROV1 ovarian): 1420 nM | TGI (IGROV1 ovarian): 4690 nM | GI50 (SK-MEL-28 melanoma): 2150 nM | TGI (SK-MEL-28 melanoma): 4890 nM | GI50 (SK-MEL-5 melanoma): 1610 nM | TGI (SK-MEL-5 melanoma): 3040 nM | GI50 (HT29 colon): 659 nM | TGI (HT29 colon): 2080 nM | GI50 (SF-268 CNS): 1910 nM | TGI (SF-268 CNS): 5030 nM | GI50 (HOP-62 NSCLC): 2270 nM | TGI (HOP-62 NSCLC): 6480 nM | GI50 (SK-OV-3 ovarian): 4660 nM | TGI (SK-OV-3 ovarian): > 100000 nM | GI50 (SF-295 CNS): 2420 nM | TGI (SF-295 CNS): 7060 nM | GI50 (786-0 renal): 2150 nM | TGI (786-0 renal): 4720 nM | GI50 (U251 CNS): 1820 nM | TGI (U251 CNS): 3980 nM | GI50 (TK-10 renal): 1390 nM | TGI (TK-10 renal): 2750 nM | GI50 (M14 melanoma): 1750 nM | TGI (M14 melanoma): 4070 nM | GI50 (HCT-116 colon): 373 nM | TGI (HCT-116 colon): 1320 nM | GI50 (HS 578T breast): 2090 nM | TGI (HS 578T breast): 6250 nM | GI50 (SNB-75 CNS): 2850 nM | TGI (SNB-75 CNS): > 100000 nM | GI50 (BT-549 breast): 1820 nM | TGI (BT-549 breast): 3470 nM | GI50 (LOX IMVI melanoma): 1470 nM | TGI (LOX IMVI melanoma): 3100 nM | GI50 (KM12 colon): 1700 nM | TGI (KM12 colon): 3400 nM | GI50 (NCI-H23 lung): 1940 nM | TGI (NCI-H23 lung): 4820 nM | GI50 (NCI-H522 lung): 531 nM | TGI (NCI-H522 lung): 1860 nM | GI50 (MALME-3M melanoma): 2420 nM | TGI (MALME-3M melanoma): 4600 nM | GI50 (UO-31 renal): 1180 nM | TGI (UO-31 renal): 3460 nM | GI50 (SN12C renal): 1920 nM | TGI (SN12C renal): 4960 nM | GI50 (HL-60(TB) leukemia): 1920 nM | TGI (HL-60(TB) leukemia): 5090 nM | GI50 (PC-3 prostate): 1750 nM | TGI (PC-3 prostate): 5150 nM | GI50 (NCI/ADR-RES ovarian): 2850 nM | TGI (NCI/ADR-RES ovarian): 23100 nM | GI50 (DU-145 prostate): 2250 nM | TGI (DU-145 prostate): 6400 nM | GI50 (SNB-19 CNS): 3980 nM | TGI (SNB-19 CNS): 21600 nM | GI50 (OVCAR-4 ovarian): 1470 nM | TGI (OVCAR-4 ovarian): 2840 nM | GI50 (K-562 leukemia): 388 nM | TGI (K-562 leukemia): 2040 nM | GI50 (OVCAR-3 ovarian): 1530 nM | TGI (OVCAR-3 ovarian): 2860 nM | GI50 (NCI-H460 lung): 1580 nM | TGI (NCI-H460 lung): 3220 nM | GI50 (UACC-62 melanoma): 1600 nM | TGI (UACC-62 melanoma): 3500 nM | GI50 (RPMI-8226 leukemia): 447 nM | TGI (RPMI-8226 leukemia): 2540 nM | GI50 (UACC-257 melanoma): 1540 nM | TGI (UACC-257 melanoma): 3310 nM | GI50 (A498 renal): 3770 nM | TGI (A498 renal): 18600 nM | GI50 (A549 NSCLC): 2740 nM | TGI (A549 NSCLC): 8530 nM | GI50 (SW-620 colon): 296 nM | TGI (SW-620 colon): 1270 nM | GI50 (MDA-MB-231 breast): 1360 nM | TGI (MDA-MB-231 breast): 3270 nM | GI50 (COLO 205 colon): 1430 nM | TGI (COLO 205 colon): 3280 nM | GI50 (MOLT-4 leukemia): 2350 nM | TGI (MOLT-4 leukemia): 7520 nM | GI50 (MCF7 breast): 432 nM | TGI (MCF7 breast): 2010 nM | GI50 (T-47D breast): 1860 nM | TGI (T-47D breast): 4770 nM | GI50 (SR leukemia): 168 nM | TGI (SR leukemia): 799 nM | GI50 (ACHN renal): 1190 nM | TGI (ACHN renal): 2530 nM | GI50 (OVCAR-5 ovarian): 2400 nM | TGI (OVCAR-5 ovarian): 4750 nM | GI50 (RXF 393 renal): 1340 nM | TGI (RXF 393 renal): 2740 nM | GI50 (SK-MEL-2 melanoma): 1900 nM | TGI (SK-MEL-2 melanoma): 3720 nM
